Patent US20210379068A1, “METHODS AND MATERIALS FOR TREATING NEUROPSYCHIATRIC DISORDERS” (Mayo Foundation for Medical Education and Research, priority 2018, published 2021)

Tested on: senescent cells in cortex, cerebellum, and hippocampus
Experiment: Senescence markers in cortex, cerebellum and hippocampus, INK-ATTAC mice
Format: in vivo, mouse
Conditions: obese and lean INK-ATTAC mice with and without AP
Description: INK-ATTAC mice were injected intraperitoneally (i.p.) with AP20187 (10 mg/kg) or vehicle for 3 days every 2 weeks for a total of 8-10 weeks.
Total RNA was extracted from white adipose tissue and brain using Trizol (Life Technologies, Carlsbad, Calif.) and reverse transcribed to cDNA with a M-MLV Reverse Transcriptase kit (Life Technologies). Real-time PCR was performed in a 7500 Fast Real Time PCR System (Applied Biosystems, Foster City, Calif.) using TaqMan Fast Universal PCR Master Mix (Life Technologies) and predesigned primers and probes from Applied Biosystems (Assay ID: Mm00494449_m1 [CDKN2A]; Mm04205640_g1 [CDKN1A]; Mm00446191_m1 [IL6]). Target gene expression was expressed as 2-ΔΔCT by the comparative CT method and normalized to the expression of TATA-binding protein (TBP) (Assay ID: Mm01277042 ml [TBP]).
Paraffin sections were deparaffinized with Histoclear and hydrated in an ethanol gradient followed by water and PBS. Antigen was retrieved by incubation in 0.01M citrate buffer (pH 6.0) at 95° C. for 10 minutes. Slides were placed in blocking buffer (1:60 normal goat serum [S-1000, Vector Laboratories] in 0.1% BSA/PBS) for 60 minutes at room temperature. […] Primary antibodies used (Table 2) were diluted in blocking buffer and applied overnight at 4° C. The next day, slides were washed 3 times with PBS and incubated for 30 minutes with secondary goat, anti-rabbit antibody (1:200; Vector Laboratories #BA-1000) for TAF staining or for 60 minutes with secondary Alexa antibody (Table 1). […]
A single, 3 μm-thick section per mouse was used for TAF staining, while for Dcx and Plin2 staining was performed on three 10 μm-thick sections 80 μm-apart. To quantify periventricular lipid accumulation 10-30 images in the periventricular region were taken using the DM5500 widefield fluorescence microscope from Leica with a 10× (for frequency of periventricular glia) or ×40 (for ALISE phenotype of ependymal cells) objective lens. Number of Plin2-positive cells (for frequency of ALISE-positive periventricular glia) or area of Plin2-positive vesicles (for ALISE phenotype of ependymal cells) was assessed using ImageJ software. For identity assessment of Plin2+ cells, 10 μm-thick sections were stained with combination of antibodies for Iba1 (secondary antibody conjugated with Alexa Fluor 488), Plin2 (secondary antibody conjugated with Alexa Fluor 594), and Vimentin (secondary antibody conjugated with Alexa Fluor 647) and quantified for frequency of Plin2+ astrocytes (Iba1−, Vim+) and microglia (Iba1+) in the periventricular region. […] For TAF quantification in depth Z stacking was used (images were captured as stacks separated by 0.4 μm with ×63 objective) followed by ImageJ analysis.

CC[C@H](C(=O)N1CCCC[C@H]1C(=O)O[C@H](CCc1ccc(OC)c(OC)c1)c1cccc(OCC(=O)NCC(CNC(=O)COc2cccc([C@@H](CCc3ccc(OC)c(OC)c3)OC(=O)[C@@H]3CCCCN3C(=O)[C@@H](CC)c3cc(OC)c(OC)c(OC)c3)c2)CN(C)C)c1)c1cc(OC)c(OC)c(OC)c1 [AP]
No differences: TAF in cortex, cerebellum, hippocampus | p16 in cortex, cerebellum, hippocampus | p21 in cortex, cerebellum, hippocampus | γ-H2A.X in cortex, cerebellum, hippocampus
